How the values were obtained:
[1] = target: sucrase-isomaltase (Sus scrofa); experiment: Alpha-D-glucosidase inhibitory activity and enzyme inhibition in vitro against porcine sucrase
[2] = target: maltase-glucoamylase (Sus scrofa); experiment: Inhibitory activity against porcine maltase

IC50 [1] [nM]	IC50 [2] [nM]	Structure (SMILES)
230	100	CO[C@H]1O[C@H](CO)[C@H](N[C@H]2C[C@](O)(CO)[C@@H](O)[C@H](O)[C@H]2O)[C@H](O)[C@H]1O
80	72	CO[C@H]1O[C@H](CO)[C@@H](N[C@H]2C[C@](O)(CO)[C@@H](O)[C@H](O)[C@H]2O)[C@H](O)[C@H]1O
190	–	OC[C@@]1(O)C[C@H](NC[C@@H](O)c2ccccc2)[C@H](O)[C@H](O)[C@H]1O [1-Hydroxymethyl-5-(2-hydroxy-2-phenyl-ethylamino)-cyclohexane-1,2,3,4-tetraol]
–	5.8	OC[C@@]1(O)C[C@H](NC[C@H](O)c2ccccc2)[C@H](O)[C@H](O)[C@H]1O [1-Hydroxymethyl-5-(2-hydroxy-2-phenyl-ethylamino)-cyclohexane-1,2,3,4-tetraol]
6.8	43	CC(C)(C)c1cc(CN[C@H]2C[C@](O)(CO)[C@@H](O)[C@H](O)[C@H]2O)cc(C(C)(C)C)c1O [5-(3,5-Di-tert-butyl-4-hydroxy-benzylamino)-1-hydroxymethyl-cyclohexane-1,2,3,4-tetraol]
11	520	CC(C)=CCC/C(C)=C/CN[C@H]1C[C@](O)(CO)[C@@H](O)[C@H](O)[C@H]1O [5-(3,7-Dimethyl-octa-2,6-dienylamino)-1-hydroxymethyl-cyclohexane-1,2,3,4-tetraol]
15	230	OC[C@@]1(O)C[C@H](NCc2ccc(Br)cc2)[C@H](O)[C@@H](O)[C@@H]1O [5-(4-Bromo-benzylamino)-1-hydroxymethyl-cyclohexane-1,2,3,4-tetraol]
9.3	240	OC[C@@]1(O)C[C@H](NCC2CCCCC2)[C@H](O)[C@@H](O)[C@@H]1O [5-(Cyclohexylmethyl-amino)-1-hydroxymethyl-cyclohexane-1,2,3,4-tetraol]
180	5900	OCC1=C[C@H](NC(CO)CO)[C@H](O)[C@@H](O)[C@@H]1O [6-(2-Hydroxy-1-hydroxymethyl-ethylamino)-4-hydroxymethyl-cyclohex-4-ene-1,2,3-triol]
49	2200	N[C@H]1C[C@](O)(CO)[C@@H](O)[C@H](O)[C@H]1O [Valiolamine]

Structure (SMILES)	IC50 [1] [nM]	IC50 [2] [nM]
OC[C@@]1(O)C[C@H](NCCc2ccccc2)[C@H](O)[C@@H](O)[C@@H]1O [1-Hydroxymethyl-5-phenethylamino-cyclohexane-1,2,3,4-tetraol]	2.3	100
OC[C@@]1(O)C[C@H](NC2CCCCC2)[C@H](O)[C@@H](O)[C@@H]1O [5-Cyclohexylamino-1-hydroxymethyl-cyclohexane-1,2,3,4-tetraol]	15	410
